Test results taken from patent US8283342B2, “Napadisylate salt of 5-(2-{[6-(2,2-difluoro-2-phenylethoxy) hexyl]amino}-1-hydroxyethyl)-8-hydroxyquinolin-2(1H)-one as agonist of the β2 adrenergic receptor” (Almirall S.A., priority 2007, dated 2012).

Tests used:
[1] = Differential scanning calorimetry (DSC) analysis; assay type: physicochemical; conditions: equilibrated at 30° C., heated at 10° C./min to 300° C.
Experimental: The differential scanning calorimetry (DSC) analysis was obtained using a DSC-821 Mettler-Toledo, serial number 5117423874. Samples were weighed into an aluminium pan, an aluminium lid placed on top of the sample and compressed with a brass rod. Samples were equilibrated at 30° C. and heated at 10° C./min to 300° C. The instrument was calibrated using indium and zinc standards.

[2] = Thermogravimetric (TGA) analysis; assay type: physicochemical
Experimental: The thermogravimetric (TGA) analysis was obtained using a TGA-SDTA-851 Mettler-Toledo, serial number 5118408555. Samples were placed into a tared aluminium pan and then positioned on a platinum crucible. Samples were heated from 30° C. at 10° C./min to 350° C. The instrument was calibrated using indium and aluminium standards.

O=S(=O)(O)c1cccc2c(S(=O)(=O)O)cccc12.O=c1ccc2c([C@@H](O)CNCCCCCCOCC(F)(F)c3ccccc3)ccc(O)c2[nH]1.O=c1ccc2c([C@@H](O)CNCCCCCCOCC(F)(F)c3ccccc3)ccc(O)c2[nH]1 [5-(-2-(6-(2,2-Difluoro-2-phenylethoxy)hexylamino)-1(R)-hydroxyethyl)-8-hydroxyquinolin-2(1H)-one heminapadisylate]
stability (no changes prior to the melting point range; no conversion into other polymorphs, no decomposition) [1]: high stability | weight loss due to the decomposition of the sample ([2]; from approximately 200° C. to 220° C., heated from 30° C. at 10° C./min to 350° C.): 3.1 % w/w | hygroscopicity (no solvent/water release) ([2]; prior to 200° C., in particular at 80-100° C., no change): lack of hygroscopicity
